Consider 2 molecules from publication PMC7038631 (Alzheimer's & dementia : the journal of the Alzheimer's …, 2019).

A short description of data set [1]: FRET control cells expressing free fluorophores. The data set is classed as cell-based, human.
A further data set addresses purified WT tau proteins (Homo sapiens, UniProt P10636). Briefly: Heparin induced thioflavin-T. The data set is classed as biochemical.
In data set [2] the target is tau preformed fibrils (PFF) (Homo sapiens, UniProt P10636). The data set can be described thus: ThT signal of tau preformed fibrils. The data set is classed as biochemical. The note with it: DTT 5 mM.
In data set [3] the test system is untransfected SH-SY5Y cells. The note with it: MK-886 0.5, 1 or 2 μM.
For a further data set, the system named is WT 2N4R tau monomer. Briefly: Single-molecule FRET. The data set is classed as biochemical. The note with it: 5 μM, vs buffer or DMSO.
Data set [4] addresses purified recombinant full-length 2N4R wild-type (WT) tau (Homo sapiens, UniProt P10636). Briefly: Surface plasmon resonance binding to immobilized WT tau. The conditions noted are these: read-out: Kd, binding to purified WT tau protein (SPR); steady-state, 25 °C, 1 nM to 5 μM. (Surface plasmon resonance follows binding to a sensor surface in real time, without labels.)

Structures are written as SMILES. “Also recorded” adds a separate entry of the source.

Chain of purified WT tau proteins (P10636 1-441 isoform P10636-8): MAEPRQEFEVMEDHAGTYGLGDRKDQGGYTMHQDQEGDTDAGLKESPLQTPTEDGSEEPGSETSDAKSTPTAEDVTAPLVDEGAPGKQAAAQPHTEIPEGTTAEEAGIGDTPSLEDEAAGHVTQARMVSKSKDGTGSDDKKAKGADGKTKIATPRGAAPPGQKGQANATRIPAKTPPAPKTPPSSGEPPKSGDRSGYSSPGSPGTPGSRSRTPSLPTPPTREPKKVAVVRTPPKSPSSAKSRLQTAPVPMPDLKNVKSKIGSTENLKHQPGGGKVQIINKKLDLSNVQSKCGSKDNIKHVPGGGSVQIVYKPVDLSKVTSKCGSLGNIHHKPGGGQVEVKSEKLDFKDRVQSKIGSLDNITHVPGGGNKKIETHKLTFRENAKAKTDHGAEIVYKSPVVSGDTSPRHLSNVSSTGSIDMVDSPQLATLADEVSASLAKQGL
Chain of tau preformed fibrils (PFF) (P10636 1-441 isoform P10636-8): as above
Chain of purified recombinant full-length 2N4R wild-type (WT) tau (P10636 1-441 isoform P10636-8): as above

For the molecule `CC(C)c1ccc2c(c1)c(SC(C)(C)C)c(CC(C)(C)C(=O)O)n2Cc1ccc(Cl)cc1` [MK-886], the “Action on cytosolic fluorophores (control FRET)” value in data set [1] is given as “not acting on the cytosolic fluorophores”. Also, the “Direct effect on ThT fluorescence” value at purified WT tau proteins is listed as “did not have a direct effect”. Besides, the “Effect on lag phase of tau β-sheet fibril formation (ThT)” value at purified WT tau proteins (heparin 0.4 mg/ml, MK-886 0.5 and 5 μM) is recorded as “reduces the lag phase; also recorded: shortens the lag phase”. Moreover, the “Nucleation of tau fibril formation without heparin (ThT)” value on purified WT tau proteins (no heparin) is given as “unable to nucleate tau fibrillization; also recorded: did not act to nucleate”. Besides, in data set [2], the “Effect on ThT signal from tau PFF” value is “did not reduce”. Further, the “Rescue of cell cytotoxicity induced by UC-112” value in data set [3] (UC-112 1 μM) is “did not rescue”. Also, the “Rescue of cell cytotoxicity induced by YM-155” value in data set [3] (YM-155 1 μM) was “did not rescue”. In addition, in the data set on WT 2N4R tau monomer, the “smFRET change, N-terminal domain labeled tau construct” value is “minor decrease in FRET” and the “smFRET change, PRR/MTBR labeled tau construct” value is given as “substantial increase in FRET”. For the same molecule, in data set [4], the equilibrium dissociation constant (Kd) was 178 nM.
Take `O=c1c(O)c(-c2ccc(O)c(O)c2)oc2c(O)c(O)cc(O)c12` [gossypetin]: the “Effect on ThT signal from tau PFF” value in data set [2] is “significant decrease”.

One may read the Kd as a measure of binding affinity in units of concentration.
